Measured values: PubChem BioAssay AID1963861 (Molecular Pharmacology Branch, DTP, NCI, 2024)
Values joined by “and” are separate entries in the source; they are usually repeats but may differ in a detail not shown here. Identical values can stand only once.

Test system: 885724-159-R-J1-PDC KRAS PDC multicell spheroid viability
Test: Anticancer human tumor 885724-159-R-J1-PDC patient-derived pancreatic adenocarcinoma cell line growth inhibition [KRAS2]
Conditions: for viability, T/C: stronger effect = lower value
Source text: Multicellular complex tumor spheroid response to RAS pathway inhibitors in combination with a targeted agents in patient-derived cell lines with oncogenic KRAS variants from multiple cancer types
A high-throughput screen of multi-cell type tumor spheroids was designed to identify active combinations of targeted small molecules and KRAS pathway inhibitors. Complex spheroids include a stromal component modeled by human endothelial cells (HUVEC) and fibroblasts modeled by human mesenchymal stem cells (MSCs). The concentration ranges selected for each drug and investigational agent were based upon clinically achievable concentrations if the clinical Cmax of the agent was known.
Compounds. The drugs and investigational agents: BI-3406 (NSC825286), BAY-293 (NSC824723), batoprotafib (TNO155; NSC825523), sotorasib (AMG 510; NSC818433), MRTX1257 (NSC819558), elimusertib (BAY 1895344; NSC800525), molibresib (GSK525762; NSC774829), temuterkib (LY3214996; NSC803410), venetoclax (NSC766270), alisertib (NSC759677), olaparib (NSC753686), talazoparib (NSC767125), erdafitinib (NSC781556), ipatasertib (NSC767898), cabozantinib (NSC761068), nintedanib (NSC756659), abemaciclib (NSC768073), docetaxel (NSC628503), trametinib (NSC758246), and sapanisertib (NSC764658) were obtained from the National Cancer Institute (NCI) Developmental Therapeutics Program Chemical Repository. The FDA-approved anticancer drug set is available from the Developmental Therapeutics Program. […] The stock solutions were prepared in dimethyl sulfoxide (DMSO, Sigma-Aldrich, St. Louis, MO, cat. D2650) at 800-fold the tested concentration and stored at -70 degrees C prior to their use. All drugs and investigational agents were tested over a range starting from a high concentration at or near the clinical Cmax and decreasing in half-log increments. If the clinical Cmax for an agent had not been determined, the highest concentration tested was 10 microM.
Cell Culture. All cells were maintained in an incubator at 37 degrees C and 5% CO2 with 95% humidity. The PDC lines were cultured according to standard operating procedures established by the NCI PDMR (https://pdmr.cancer.gov/sops/default.htm). Briefly, all PDCs were thawed and cultured in Matrigel-coated flasks prepared with a working solution of 1X Ham's F-12 nutrient mix, without supplementation (Invitrogen, Waltham, MA, cat. 11765054), 100 U/mL penicillin-streptomycin (Invitrogen, cat. 15140122), and 2.5% Matrigel (Corning Inc., Corning, NY, cat. 354248) for the first three passages. All PDCs were cultured in complete DMEM/F-12 media containing advanced DMEM/F-12 (Invitrogen, cat. 12634028), 4.9% defined fetal bovine serum, heat inactivated (HyClone Laboratories Inc., Logan, UT, cat. SH30070.03HI), 389 ng/mL hydrocortisone (Sigma-Aldrich, cat. H4001), 9.7 ng/mL human EGF recombinant protein (Invitrogen, cat. PHG0313), 23.4 microg/mL adenine (Sigma-Aldrich, cat. A2786), 97.3 U/mL penicillin-streptomycin (Invitrogen, cat. 15140122), 1.9 mM L-glutamine (Invitrogen, cat. 25030081), and 9.7 microM Y-27632 dihydrochloride (Tocris Bioscience, Bristol, United Kingdom, cat. 1254). The PDCs were cultured in complete DMEM/F12 media without 9.7 microM Y-27632 dihydrochloride for at least two passages prior to the screen. The established cell line HOP-62 was cultured in RPMI 1640 medium, HEPES (Invitrogen, cat. 22400105) with 10% defined fetal bovine serum (HyClone Laboratories Inc., cat. SH30070.03) and 2 mM L-glutamine (Invitrogen, cat. 25030081). The pooled donor HUVEC were cultured in endothelial cell growth medium 2 (PromoCell, Heidelberg, Germany, cat. C-22011) and the hMSC were cultured in mesenchymal stem cell growth medium 2 (PromoCell, cat. C-28009). For all experiments, HUVEC and hMSC were used at passages </=5, while the malignant cell lines were used at passages </=15. […]

[1] = compound alone, run of 08/19/2021
[2] = compound alone, run of 08/26/2021
[3] = compound alone, run of 09/02/2021
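Note: spheroids exposed to agents for 7 days before readout.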

Structure (SMILES)	viability, T/C (compound 0.0316 µM)	viability, T/C (compound 0.316 µM)	IC50 [1]	IC50 [2]	IC50 [3]	viability, T/C (compound 0.0001 µM)	viability, T/C (compound 0.000316 µM)	viability, T/C (compound 0.001 µM)	viability, T/C (compound 0.00316 µM)	viability, T/C (compound 0.01 µM)	IC50 (curve of compound)	viability, T/C (compound 0.1 µM)	viability, T/C (compound 1 µM)	viability, T/C (compound 3.16 µM)	viability, T/C (compound 10 µM)
C=CC(=O)N1CCN(c2nc(OCC3CCCN3C)nc3c2CCN(c2cccc4cccc(C)c24)C3)CC1CC#N (stereo not drawn)	103% [middle of 17 runs]	94.9% [middle of 17 runs]	> 3.16 µM and 2.89 µM and 2.93 µM	> 3.16 µM and 3.06 µM	> 3.16 µM and 2.96 µM and 2.89 µM										
CC(=O)Nc1cccc(-n2c(=O)n(C3CC3)c(=O)c3c(Nc4ccc(I)cc4F)n(C)c(=O)c(C)c32)c1	18.6% [middle of 5 runs]					89.6% [middle of 5 runs]	68.2% [middle of 5 runs]	49.6% [middle of 5 runs]	36.5% [middle of 5 runs]	25.7% [middle of 5 runs]	0.966 nM [middle of 5 runs]				
CC(=O)OC12COC1CC(O)C1(C)C(=O)C(O)C3=C(C)C(OC(=O)C(O)C(NC(=O)OC(C)(C)C)c4ccccc4)CC(O)(C(OC(=O)c4ccccc4)C21)C3(C)C (stereo not drawn)	93.2% [middle of 5 runs]									88.4% [middle of 5 runs]	> 3.16 µM	102% [middle of 5 runs]	112% [middle of 5 runs]		
CC(C)NCC(C(=O)N1CCN(c2ncnc3c2C(C)CC3O)CC1)c1ccc(Cl)cc1 (stereo not drawn)	95.8% [middle of 5 runs]	75.3% [middle of 5 runs]									> 10 µM	83.2% [middle of 5 runs]	75.9% [middle of 5 runs]	84.6% [middle of 5 runs]	56.9% [middle of 5 runs]
CC(C)n1nc(-c2ccc3oc(N)nc3c2)c2c(N)ncnc21	51% [middle of 5 runs]						95.6% [middle of 5 runs]	74.4% [middle of 5 runs]	65.9% [middle of 5 runs]	61.9% [middle of 5 runs]		46.5% [middle of 5 runs]			
CC1(C)CCC(CN2CCN(c3ccc(C(=O)NS(=O)(=O)c4ccc(NCC5CCOCC5)c([N+](=O)[O-])c4)c(Oc4cnc5[nH]ccc5c4)c3)CC2)=C(c2ccc(Cl)cc2)C1	100% [middle of 5 runs]	100% [middle of 5 runs]									9.05 µM [middle of 5 runs]	103% [middle of 5 runs]	97.1% [middle of 5 runs]		
CC1COCCN1c1cc(-c2ccnn2C)c2ccnc(-c3ccn[nH]3)c2n1 (stereo not drawn)	90.6% [middle of 5 runs]	62.3% [middle of 5 runs]								107% [middle of 5 runs]	> 3.16 µM	69.9% [middle of 5 runs]	56.6% [middle of 5 runs]	58.2% [middle of 5 runs]	
CC1OCC2(CCN(c3cnc(Sc4ccnc(N)c4Cl)c(N)n3)CC2)C1N (stereo not drawn)	99.7% and 101% and 102%		> 10 µM	> 10 µM	> 10 µM						> 10 µM	92.4% [middle of 19 runs]		71.4% [middle of 20 runs]	
CCN1CCN(Cc2ccc(Nc3ncc(F)c(-c4cc(F)c5nc(C)n(C(C)C)c5c4)n3)nc2)CC1	89.9% [middle of 5 runs]	92.5% [middle of 5 runs]							108% (2×) and 101% and 103% (2×)	100% [middle of 5 runs]	> 1 µM	88.7% [middle of 5 runs]	94% [middle of 5 runs]		
CCNC(=O)CC1N=C(c2ccc(Cl)cc2)c2cc(OC)ccc2-n2c(C)nnc21 (stereo not drawn)	112% [middle of 5 runs]	78.4% [middle of 5 runs]									> 10 µM and 8.28 µM	102% [middle of 5 runs]	66.7% [middle of 5 runs]	59.7% [middle of 5 runs]	51.8% [middle of 5 runs]
CN(C)C/C=C/C(=O)Nc1cc2c(Nc3ccc(F)c(Cl)c3)ncnc2cc1O[C@H]1CCOC1	81.5% [middle of 5 runs]						107% [middle of 5 runs]	104% [middle of 5 runs]		95.3% [middle of 5 runs]	> 0.1 µM	77.5% [middle of 5 runs]			
COC(=O)c1ccc2c(C(=Nc3ccc(N(C)C(=O)CN4CCN(C)CC4)cc3)c3ccccc3)c(O)[nH]c2c1	99.8% [middle of 5 runs]	98.2% [middle of 5 runs]									2.26 µM [middle of 5 runs]	103% [middle of 5 runs]	103% [middle of 5 runs]	29.4% [middle of 5 runs]	0.61% [middle of 5 runs]
COc1cc(Nc2ncc3c(n2)-c2ccc(Cl)cc2C(c2c(F)cccc2OC)=NC3)ccc1C(=O)O	93.8% [middle of 5 runs]	88.7% [middle of 5 runs]									> 10 µM	89.1% [middle of 5 runs]	90% [middle of 5 runs]	96.2% [middle of 5 runs]	98.4% [middle of 5 runs]
COc1cc(OC)cc(N(CCNC(C)C)c2ccc3ncc(-c4cnn(C)c4)nc3c2)c1	103% [middle of 5 runs]	109% [middle of 5 runs]									6.96 µM [middle of 5 runs]	104% [middle of 5 runs]	121% [middle of 5 runs]	142% [middle of 5 runs]	16.8% [middle of 5 runs]
COc1cc2nccc(Oc3ccc(NC(=O)C4(C(=O)Nc5ccc(F)cc5)CC4)cc3)c2cc1OC	111% [middle of 5 runs]	110% [middle of 5 runs]									> 10 µM	108% [middle of 5 runs]	102% [middle of 5 runs]	74.1% [middle of 5 runs]	70.5% [middle of 5 runs]
Cn1nccc1Nc1nccc(-c2cc3c(s2)C(C)(C)N(CCN2CCOCC2)C3=O)n1	99.9% and 99.7%	59.1% and 65.2%									0.665 µM and 0.799 µM	86.3% and 84.2%	45.5% and 45.8%	35.7% and 37.9%	31.1% and 35.9%
Cn1ncnc1[C@H]1c2n[nH]c(=O)c3cc(F)cc(c23)N[C@@H]1c1ccc(F)cc1	96.2% [middle of 5 runs]						102% [middle of 5 runs]	102% [middle of 5 runs]	97.3% [middle of 5 runs]	98.2% [middle of 5 runs]	> 0.1 µM	91% [middle of 5 runs]			
O=C(c1cc(Cc2n[nH]c(=O)c3ccccc23)ccc1F)N1CCN(C(=O)C2CC2)CC1	104% [middle of 5 runs]	105% [middle of 5 runs]									> 10 µM	106% [middle of 5 runs]	106% [middle of 5 runs]	101% [middle of 5 runs]	82.5% [middle of 5 runs]
